For one test, the target named is T1, BcGH88 (Bacteroides caccae, UniProt A0A413IVG2).
T1 construct: residues 31-433, N-terminal His6 tag with thrombin site, E. coli
T1 sequence (A0A413IVG2 31-433): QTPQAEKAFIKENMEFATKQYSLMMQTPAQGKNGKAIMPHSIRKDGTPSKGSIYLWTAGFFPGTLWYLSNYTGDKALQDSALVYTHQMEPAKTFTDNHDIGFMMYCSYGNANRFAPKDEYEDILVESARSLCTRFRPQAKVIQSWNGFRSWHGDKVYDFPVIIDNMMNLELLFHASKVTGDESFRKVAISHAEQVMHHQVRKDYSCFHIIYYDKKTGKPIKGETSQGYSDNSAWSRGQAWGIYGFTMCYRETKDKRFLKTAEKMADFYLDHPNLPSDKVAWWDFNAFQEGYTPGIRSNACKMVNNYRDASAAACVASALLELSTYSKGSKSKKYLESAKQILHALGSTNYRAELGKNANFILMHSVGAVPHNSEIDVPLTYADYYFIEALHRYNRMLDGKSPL
In words: loss of absorbance at […] nm. The format is biochemical. Particulars: only kcat/Km determined; 100 mM Tris pH 7.4, 37 °C.

Test [1] deals with BcGDH R285A mutant (Bacteroides caccae (strain ATCC 43185)). In words: crystal structure; BcGDH R285A soaked in 50 mM chondrosine, spacegroup P2_(1)2_(1)2_(1), tetramer in the asymmetric unit; 18 g/L protein, 0.25 M sodium iodide, 5 to 13% glycerol, 8 to 13% PEG 3350.
The target in test [2] is BcGDH (β-D-glucuronate dehydratase from Bacteroides caccae PUL25, previously classified as GH154) (Bacteroides caccae (strain ATCC 43185)). Put plainly: crystal structure; unliganded BcGDH, spacegroup P2_(1), tetramer in the asymmetric unit; crystals at 18 °C from 26 g/L protein, 220 mM KCl, 24% PEG 3350; the same tetramer seen in four further unrefined crystal forms.
For a further test, the target named is T2, BcGDH (GH154, BcGH154) (Bacteroides caccae, UniProt I9ECR6).
T2 construct: gene HMPREF1061_03832; residues 24-423, N-terminal His6-thrombin tag (cleaved for crystallography), E. coli, homotetramer; site completed by Y401 of a neighbouring monomer
T2 sequence (I9ECR6 24-423): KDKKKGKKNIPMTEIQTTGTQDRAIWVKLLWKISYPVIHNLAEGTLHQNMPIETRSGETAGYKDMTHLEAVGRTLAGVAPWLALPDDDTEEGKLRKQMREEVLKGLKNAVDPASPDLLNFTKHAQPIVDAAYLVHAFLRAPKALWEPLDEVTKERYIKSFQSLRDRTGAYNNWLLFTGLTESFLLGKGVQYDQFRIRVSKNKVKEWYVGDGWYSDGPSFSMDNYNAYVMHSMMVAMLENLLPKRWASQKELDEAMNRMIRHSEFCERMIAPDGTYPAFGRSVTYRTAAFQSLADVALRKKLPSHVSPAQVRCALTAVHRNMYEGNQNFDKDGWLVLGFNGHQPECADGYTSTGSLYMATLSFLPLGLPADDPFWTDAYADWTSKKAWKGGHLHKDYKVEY
Put plainly: absorbance at […] nm; LC-ESI-MS of product. The format is biochemical. Particulars: dehydration to 4,5-unsaturated product; only kcat/Km determined; 100 mM Tris pH 7.4, 25 °C.

As a reminder, the stoichiometry N is a count of units in the complex or per binding partner.

With `CC(=O)N[C@H]1C(O)O[C@H](COS(=O)(=O)O)[C@H](O)[C@@H]1O[C@@H]1OC(C(=O)O)=C[C@H](O)[C@H]1O` (some centres unmarked) [CSΔ6S], the “loss of absorbance at 232 nm” value at BcGH88 was “BcGH88 had activity on CSΔ0S and CSΔ6S with kcat/Km values”.
With BcGDH R285A mutant (enzyme), the stoichiometry N in test [1] was determined as 4.
As to `CC(=O)N[C@H]1C(O)O[C@H](CO)[C@H](O)[C@@H]1O[C@@H]1OC(C(=O)O)=C[C@H](O)[C@H]1O` (some centres unmarked) [CSΔ0S], at BcGH88, the “loss of absorbance at 232 nm” value was “BcGH88 had activity on CSΔ0S and CSΔ6S with kcat/Km values”.
For the compound “BcGDH (β-D-glucuronate dehydratase from Bacteroides caccae PUL25, previously classified as GH154) (enzyme)”, the stoichiometry N in test [2] amounted to 4.
In the case of `N[C@H]1C(O)O[C@H](CO)[C@H](O)[C@@H]1O[C@@H]1O[C@H](C(=O)O)[C@@H](O)[C@H](O)[C@H]1O` (some centres unmarked) [chondrosine], the “absorbance at 232 nm; LC-ESI-MS of product” value on BcGDH (GH154, BcGH154) is “The absorbance increased in a time-dependent manner, with the rate of increase dependent upon the chondrosine”.

For the origin of these results see paper PMC12269599, “Analysis of chondroitin degradation by components of a Bacteroides caccae polysaccharide utilization locus” (The Journal of Biological Chemistry, 2025).
